Measured values taken from article PMC8972069 (Nuclear medicine and biology, 2020).

What was measured:
[1] = molecular target: T1, human recombinant S1PR4 lysophospholipid receptor membrane (Homo sapiens, UniProt O95977); test: [^32P]S1P competitive binding assay, S1PR4
T1 sequence (O95977 1-384): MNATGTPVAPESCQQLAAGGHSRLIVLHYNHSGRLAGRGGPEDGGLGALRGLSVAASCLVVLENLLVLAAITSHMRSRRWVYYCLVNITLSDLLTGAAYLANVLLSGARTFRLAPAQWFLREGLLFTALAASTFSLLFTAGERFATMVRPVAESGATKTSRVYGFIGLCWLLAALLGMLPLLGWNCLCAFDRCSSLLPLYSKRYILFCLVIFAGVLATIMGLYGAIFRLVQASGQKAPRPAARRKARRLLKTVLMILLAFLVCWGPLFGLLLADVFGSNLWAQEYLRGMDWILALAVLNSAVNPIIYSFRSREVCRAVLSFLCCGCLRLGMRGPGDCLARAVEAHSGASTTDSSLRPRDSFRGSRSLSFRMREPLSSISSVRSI

[2] = molecular target: Human recombinant S1PR5 lysophospholipid receptor membrane (Homo sapiens, UniProt Q9H228); test: [^32P]S1P competitive binding assay, S1PR5
[3] = molecular target: Human recombinant S1PR3 lysophospholipid receptor membrane (Homo sapiens, UniProt Q99500); test: [^32P]S1P competitive binding assay, S1PR3
[4] = molecular target: Human recombinant S1PR1 lysophospholipid receptor membrane (Homo sapiens, UniProt P21453); test: [^32P]S1P competitive binding assay, S1PR1

Measured: IC50

Sequence of Human recombinant S1PR3 lysophospholipid receptor membrane (Q99500 whole entry): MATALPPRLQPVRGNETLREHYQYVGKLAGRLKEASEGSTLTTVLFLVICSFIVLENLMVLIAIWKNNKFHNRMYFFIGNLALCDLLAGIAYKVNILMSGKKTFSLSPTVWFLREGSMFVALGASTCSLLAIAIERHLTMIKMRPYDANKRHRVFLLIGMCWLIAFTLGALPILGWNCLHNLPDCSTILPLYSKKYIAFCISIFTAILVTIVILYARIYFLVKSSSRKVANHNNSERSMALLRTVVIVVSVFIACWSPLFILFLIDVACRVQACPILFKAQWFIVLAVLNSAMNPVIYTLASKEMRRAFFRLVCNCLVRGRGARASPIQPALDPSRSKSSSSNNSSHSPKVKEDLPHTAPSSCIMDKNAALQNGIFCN
Sequence of Human recombinant S1PR1 lysophospholipid receptor membrane (P21453 whole entry): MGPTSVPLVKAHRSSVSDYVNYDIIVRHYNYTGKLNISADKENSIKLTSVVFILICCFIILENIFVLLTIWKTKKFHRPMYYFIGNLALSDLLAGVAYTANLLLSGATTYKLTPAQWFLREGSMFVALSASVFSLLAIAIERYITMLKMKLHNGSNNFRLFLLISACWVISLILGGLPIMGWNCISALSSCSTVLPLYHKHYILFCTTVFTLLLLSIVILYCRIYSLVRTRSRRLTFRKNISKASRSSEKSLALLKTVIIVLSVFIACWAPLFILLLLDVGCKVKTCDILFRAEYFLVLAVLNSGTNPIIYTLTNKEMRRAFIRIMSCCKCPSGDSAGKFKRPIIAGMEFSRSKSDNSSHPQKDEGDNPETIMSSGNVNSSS
Sequence of Human recombinant S1PR5 lysophospholipid receptor membrane (Q9H228 whole entry): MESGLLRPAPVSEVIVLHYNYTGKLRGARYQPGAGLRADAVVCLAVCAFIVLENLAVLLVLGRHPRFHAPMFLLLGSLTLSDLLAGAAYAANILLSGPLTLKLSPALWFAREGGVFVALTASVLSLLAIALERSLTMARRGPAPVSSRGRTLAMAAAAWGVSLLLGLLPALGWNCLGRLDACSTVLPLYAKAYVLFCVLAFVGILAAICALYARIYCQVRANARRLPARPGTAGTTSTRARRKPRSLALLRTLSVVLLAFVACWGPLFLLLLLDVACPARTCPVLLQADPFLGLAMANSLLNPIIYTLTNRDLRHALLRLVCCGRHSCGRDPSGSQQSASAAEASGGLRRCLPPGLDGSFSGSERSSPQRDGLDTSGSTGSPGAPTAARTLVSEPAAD

COc1ccc(NC(=O)Cn2c(=O)c3ccccc3n(CC(=O)Nc3cc(I)c(OC)cc3OC)c2=O)cc1 [TZ6544, N-(5-iodo-2,4-dimethoxyphenyl)-2-(3-(2-((4-methoxyphenyl)amino)-2-oxoethyl)-2,4-dioxo-3,4-dihydroquinazolin-1(2H)-yl)acetamide]
> 1000 nM: all assays above
